Earlier results as cited in US6528086B2, “Methods and apparatus for drug delivery involving phase changing formulations” (Zars, Inc., priority 1999, dated 2003).

System: tissues
Settings: in vivo

SMILES: CCCCNc1ccc(C(=O)OCCN(C)C)cc1 [Tetracaine]
- duration of anesthetic effect compared with lidocaine: longer lasting anesthetic effect on tissues than lidocaine
